# Results reported in patent US20250144187A1, “COMBINATION OF HYDROLASES AND ANTI-MICROORGANISM DRUGS AND USES THEREOF” (CENTRE FOR EYE AND VISION RESEARCH LIMITED, priority 2023, published 2025).
# How the values were obtained:
# MRSA [1] = assay: High-throughput screening of 1953 FDA-approved compounds with human lysozyme; format: cell-based, Staphylococcus aureus; conditions: compound 25 μM + 1 mg/ml lysozyme, 24-hour
# Description: (§1) 1) High-throughput screening. According to standard screening method [Zhong. […] Commun. 11, 523 (2020)], 1953 FDA-approved compounds from our drugs library at a fixed concentrations of 25 μM were screened against methicillin-resistant Staphylococcus aureus (MRSA) and Staphylococcus epidermis (a coagulase negative Staphylococci, MRSE), in combination with human lysozyme. Specifically, these compounds were added into bacterial suspensions (1×10^5 CFU/ml, in LB medium) in the absence or presence of 1 mg/ml lysozyme. LB medium without bacteria served as background group. Then, the real-time growth curvet of MRSA were monitored per hour and for 24 hours. Absorbance at 600 am (OD600) of bacterial culture at the time point of 24-hour was also measured. The inhibition ratio (%) was calculated as (ODcontrol−ODsample)/(ODcontrol−ODbackground)×100%. […] Herein, the relative and apparent inhibition ratios indicated the combination effect and potential toxicity of compound, respectively. Synergy effect was defined as the relative inhibition ratio of ≥90%. All assays were performed in triplicate.
# MRSE [2] = assay: as above; format: cell-based, Staphylococcus epidermis; conditions: compound 25 μM + 1 mg/ml lysozyme, 24-hour
# Description: as §1
# MRSA [3] = assay: High-throughput screening of 4989 compounds with human lysozyme; format: cell-based, Staphylococcus aureus; conditions: for MRSA Combination / MRSA Drug only: OD600 at 24-hour; for MRSA Combination: compound 2.5 μM + 1 mg/ml lysozyme; for MRSA Drug only: compound 2.5 μM without lysozyme; for MRSA Inhibition ratio (%): compound 2.5 μM + 1 mg/ml lysozyme relative to compound only
# Description: 1) High-throughput screening. […] Specifically, these compounds were added into bacterial suspensions (1×10^6 CFU/ml) in the […] microliter plate, in which each well contained 50 μl of lysogeny broth (LB) medium with or without 1 mg/ml lysozyme. LB medium in the absence of bacteria served as background group. Then, the real-time growth curves of MRSA were monitored per hour and for 24 hours. Experiments were performed with the biological replicates. Fly analyzing the absorbance 600 nm (OD600) of bacterial culture at the time point of 24-hour, the inhibition ratio (%) was calculated according to (ODcontrol−ODsample)/(ODcontrol−ODbackground)×100%. Here, the relative and apparent inhibition ratios were figured out by using the absorbance of bacterial suspension only containing compound and that without any drug treatment as ODcontrol, respectively. The relative and apparent inhibition ratios indicated the combination effect and potential toxicity of compound in combination effect. Synergy effect was defined as the relative inhibition ratio of ≥90%.
# MRSE [4] = assay: as above; format: cell-based, Staphylococcus epidermis; conditions: for MRSE Combination / MRSE Drug only: OD600 at 24-hour; for MRSE Combination: compound 2.5 μM + 1 mg/ml lysozyme; for MRSE Drug only: compound 2.5 μM without lysozyme; for MRSE Inhibition ratio (%): compound 2.5 μM + 1 mg/ml lysozyme relative to compound only
# MRSA [5] = assay: Check board broth micro-dilution assay, tedizolid phosphate with lysozyme; format: cell-based, Staphylococcus aureus
# Description: 2) Check board broth micro-dilution assays. According to standard two-fold dilution method [Sun. H et al., Nat. Commun. 11, 5263 (2020) tedizolid phosphate at different concentrations were added into fresh LB medium (or trypticase soy troth medium with 5% defibrinated horse blood) containing different concentrations of human lysozyme in 96-well plate. Then, 20 μl of 1.0×10^7 CFU/ml logarithmic cultures of MRSA or MRSE were added into each well of the plate and co-incubated overnight. Drug-free LB medium in the absence or presence of bacteria served as background control and growth control group, respectively. […] Thus, there would be a series of FICI values. In most of cases, the lowest one among these values was listed to reflect the best achieving degree of combination therapy. In terms of the lowest FICI, FICI≤0.5, 0.5<FICI<1 or FICI≥1, would indicate the combination has synergy, part synergy or non-synergy effects, respectively.
compound,measurement,setting,value
CO/N=C(\C(=O)N[C@@H]1C(=O)N2C(C(=O)O)=C(Cn3ccc(=N)n3CCO)CS[C@H]12)c1csc(N)n1.O=S(=O)(O)O [Cefoselis Sulfate],"Growth inhibition ratio (mean ± SD, %) MRSA",MRSA [1],40.55 ± 6.2%
same,"Growth inhibition ratio (mean ± SD, %) MRSE",MRSE [2],51.56 ± 10.39%
CNC[C@H](O)[C@@H](O)[C@H](O)[C@H](O)CO.Nc1nc(-n2cc(C(=O)O)c(=O)c3cc(F)c(N4CC(O)C4)c(Cl)c32)c(F)cc1F [Delafloxacin (meglumine)],MRSA Combination,MRSA [3],0.0629
same,MRSA Drug only,MRSA [3],0.177
same,MRSA Inhibition ratio (%),MRSA [3],90.56%
same,MRSE Combination,MRSE [4],0.0639
same,MRSE Drug only,MRSE [4],0.1374
Sertaconazole (nitrate),MRSA Combination,MRSA [3],0.2603
same,MRSA Drug only,MRSA [3],0.593
same,MRSA Inhibition ratio (%),MRSA [3],61.38%
same,MRSE Combination,MRSE [4],0.079
same,MRSE Drug only,MRSE [4],0.4977
same,MRSE Inhibition ratio (%),MRSE [4],93.73%
CO[C@@]1(NC(=O)CSCC#N)C(=O)N2C(C(=O)O)=C(CSc3nnnn3C)CS[C@@H]21 [Cefmetazole sodium],"Growth inhibition ratio (mean ± SD, %) MRSA",MRSA [1],58.25 ± 13.23%
same,"Growth inhibition ratio (mean ± SD, %) MRSE",MRSE [2],6 ± 29.05%
N#C/C(=C1/SC[C@@H](c2ccc(Cl)cc2Cl)S1)n1ccnc1 [Luliconazole],"Growth inhibition ratio (mean ± SD, %) MRSA",MRSA [1],−9.69 ± 5.58%
same,"Growth inhibition ratio (mean ± SD, %) MRSE",MRSE [2],22.39 ± 10.76%
CCCCCCNC(=O)n1cc(F)c(=O)[nH]c1=O [Carmofur],"Growth inhibition ratio (mean ± SD, %) MRSA",MRSA [1],82.5 ± 7.73%
same,"Growth inhibition ratio (mean ± SD, %) MRSE",MRSE [2],78.06 ± 11.38%
CC1(C)S[C@@H]2[C@H](NC(=O)[C@H](NC(=O)N3CCN(S(C)(=O)=O)C3=O)c3ccccc3)C(=O)N2[C@H]1C(=O)O [Mezlocillin Sodium],"Growth inhibition ratio (mean ± SD, %) MRSA",MRSA [1],90.46 ± 1.59%
same,"Growth inhibition ratio (mean ± SD, %) MRSE",MRSE [2],6.93 ± 8.22%
[H]/N=C(\N/C(=N/[H])NCCCCCCNC(=N)NC(=N)Nc1ccc(Cl)cc1)Nc1ccc(Cl)cc1 [Chlorhexidine 2HCl],"Growth inhibition ratio (mean ± SD, %) MRSA",MRSA [1],94.16 ± 0.25%
same,"Growth inhibition ratio (mean ± SD, %) MRSE",MRSE [2],12.3 ± 18.27%
CO[C@@]12[C@H](COC(N)=O)C3=C(C(=O)C(C)=C(N)C3=O)N1C[C@@H]1N[C@@H]12 [Mitomycin C],"Growth inhibition ratio (mean ± SD, %) MRSA",MRSA [1],66.02 ± 45.26%
same,"Growth inhibition ratio (mean ± SD, %) MRSE",MRSE [2],39.12 ± 43.57%
CCC(=O)c1ccc(O)cc1 [Paroxypropione],MRSA Combination,MRSA [3],0.0655
same,MRSA Drug only,MRSA [3],0.3624
same,MRSA Inhibition ratio (%),MRSA [3],95.34%
same,MRSE Combination,MRSE [4],0.0445
same,MRSE Drug only,MRSE [4],0.5254
same,MRSE Inhibition ratio (%),MRSE [4],101.37%
CC[C@H]1OC(=O)C[C@@H](O)[C@H](C)[C@@H](O[C@@H]2O[C@H](C)[C@@H](O)[C@H](N(C)C)[C@H]2O)[C@@H](CCN2C[C@H](C)C[C@H](C)C2)C[C@@H](C)C(=O)/C=C/C(C)=C/[C@@H]1CO[C@@H]1O[C@H](C)[C@@H](O)[C@@H](OC)[C@H]1OC [Tilmicosin],"Growth inhibition ratio (mean ± SD, %) MRSA",MRSA [1],91.59 ± 0.63%
same,"Growth inhibition ratio (mean ± SD, %) MRSE",MRSE [2],4.91 ± 8.1%
COC(=O)[C@]12CCC(C)(C)C[C@H]1[C@H]1C(=O)C=C3[C@@]4(C)C=C(C#N)C(=O)C(C)(C)[C@@H]4CC[C@@]3(C)[C@]1(C)CC2 [Bardoxolone Methyl],"Growth inhibition ratio (mean ± SD, %) MRSA",MRSA [1],29.95 ± 40.66%
same,"Growth inhibition ratio (mean ± SD, %) MRSE",MRSE [2],81.67 ± 1.61%
"CCOC(=O)c1ccc(O)c(O)c1 [Ethyl 3,4-dihydroxybenzoate]",MRSA Combination,MRSA [3],0.064
same,MRSA Drug only,MRSA [3],0.5805
same,MRSA Inhibition ratio (%),MRSA [3],97.54%
same,MRSE Combination,MRSE [4],0.0703
same,MRSE Drug only,MRSE [4],0.6328
same,MRSE Inhibition ratio (%),MRSE [4],96.68%
C#Cc1cccc(Nc2nc3ccccc3nc2Nc2cccc(C#C)c2)c1.Cl.Cl [TD52 (dihydrochloride)],MRSA Combination,MRSA [3],0.0926
same,MRSA Drug only,MRSA [3],0.6512
same,MRSA Inhibition ratio (%),MRSA [3],93.07%
same,MRSE Combination,MRSE [4],0.1057
same,MRSE Drug only,MRSE [4],0.402
SCP1-IN-1,MRSA Combination,MRSA [3],0.0766
same,MRSA Drug only,MRSA [3],0.1762
same,MRSA Inhibition ratio (%),MRSA [3],79.55%
same,MRSE Combination,MRSE [4],0.0698
same,MRSE Drug only,MRSE [4],0.1091
same,MRSE Inhibition ratio (%),MRSE [4],67.64%
"CC(=O)c1c(O)cc(O)c(C(C)=O)c1O [2,4-Diacetylphloroglucinol]",MRSA Combination,MRSA [3],0.0588
same,MRSA Drug only,MRSA [3],0.2097
same,MRSA Inhibition ratio (%),MRSA [3],95.09%
same,MRSE Combination,MRSE [4],0.0686
same,MRSE Drug only,MRSE [4],0.09
same,MRSE Inhibition ratio (%),MRSE [4],54.87%
C[C@@H](O)[C@H]1C(=O)N2C(C(=O)O)=C(S[C@@H]3CN[C@H](C(=O)N(C)C)C3)[C@H](C)[C@H]12 [Meropenem Trihydrate],"Growth inhibition ratio (mean ± SD, %) MRSA",MRSA [1],48.19 ± 11.14%
same,"Growth inhibition ratio (mean ± SD, %) MRSE",MRSE [2],20.45 ± 65.79%
CO/N=C(\C(=O)N[C@@H]1C(=O)N2C(C(=O)O)=C(CSc3nc(=O)c(=O)[nH]n3C)CS[C@H]12)c1csc(N)n1 [Ceftriaxone Sodium],"Growth inhibition ratio (mean ± SD, %) MRSA",MRSA [1],8.83 ± 1.45%
same,"Growth inhibition ratio (mean ± SD, %) MRSE",MRSE [2],34.56 ± 35.01%
CC1(C)S[C@@H]2[C@H](NC(=O)[C@H](N)c3ccccc3)C(=O)N2[C@H]1C(=O)OCOC(=O)[C@@H]1N2C(=O)C[C@H]2S(=O)(=O)C1(C)C [Sultamicillin],"Growth inhibition ratio (mean ± SD, %) MRSA",MRSA [1],58.05 ± 16.75%
same,"Growth inhibition ratio (mean ± SD, %) MRSE",MRSE [2],45.94 ± 13.49%
C[C@@H](O)[C@H]1C(=O)N2C(C(=O)O)=C(S[C@@H]3CN[C@H](CNS(N)(=O)=O)C3)[C@H](C)[C@H]12 [Doripenem Hydrate],"Growth inhibition ratio (mean ± SD, %) MRSA",MRSA [1],82.4 ± 5.63%
same,"Growth inhibition ratio (mean ± SD, %) MRSE",MRSE [2],11.18 ± 6.16%
poly-l-lysine,FICI,"MRSA [5]; poly-l-lysine in place of lysozyme, combined with tedizolid phosphate",0.375
CC(C)(O/N=C(\C(=O)N[C@@H]1C(=O)N2C(C(=O)[O-])=C(C[n+]3ccccc3)CS[C@H]12)c1csc(N)n1)C(=O)O [Ceftazidime Pentahydrate],"Growth inhibition ratio (mean ± SD, %) MRSA",MRSA [1],45.07 ± 6.86%
same,"Growth inhibition ratio (mean ± SD, %) MRSE",MRSE [2],34.84 ± 3.23%
CC1=C(C(=O)O)N2C(=O)[C@@H](NC(=O)[C@H](N)C3=CCC=CC3)[C@H]2SC1 [Cefradine],"Growth inhibition ratio (mean ± SD, %) MRSA",MRSA [1],48.66 ± 13.26%
same,"Growth inhibition ratio (mean ± SD, %) MRSE",MRSE [2],33.52 ± 23.07%
"N#CC(C#N)=NNc1cccc(Cl)c1 [CCCP, Carbonyl cyanide m-chlorophenyl hydrazone]",effect of ion-targeting inhibitor on FICI of tedizolid phosphate/lysozyme combination,MRSA [5]; cells incubated with the inhibitor,significant increase in FICI
CC/C=C(\C(=O)N[C@@H]1C(=O)N2C(C(=O)OCOC(=O)C(C)(C)C)=C(COC(N)=O)CS[C@H]12)c1csc(N)n1.Cl [Cefcapene Pivoxil Hydrochloride],"Growth inhibition ratio (mean ± SD, %) MRSA",MRSA [1],18.64 ± 7.49%
same,"Growth inhibition ratio (mean ± SD, %) MRSE",MRSE [2],3.23 ± 3.04%
CCN1CCN(C(=O)N[C@@H](C(=O)N[C@@H]2C(=O)N3C(C(=O)O)=C(CSc4nnnn4C)CS[C@H]23)c2ccc(O)cc2)C(=O)C1=O [Cefoperazone],"Growth inhibition ratio (mean ± SD, %) MRSA",MRSA [1],71.74 ± 5.27%
same,"Growth inhibition ratio (mean ± SD, %) MRSE",MRSE [2],−16.2 ± 8.93%
CC1(C)S[C@@H]2[C@H](NC(=O)Cc3ccccc3)C(=O)N2[C@H]1C(=O)O [Benzylpenicillin potassium],"Growth inhibition ratio (mean ± SD, %) MRSA",MRSA [1],48.39 ± 51.84%
same,"Growth inhibition ratio (mean ± SD, %) MRSE",MRSE [2],3.07 ± 4.93%
CO[C@H]1/C=C/O[C@@]2(C)Oc3c(C)c(O)c4c(c3C2=O)C(=O)C=C(NC(=O)/C(C)=C\C=C\[C@H](C)[C@H](O)[C@@H](C)[C@@H](O)[C@@H](C)[C@H](OC(C)=O)[C@@H]1C)C4=O [Rifamycin S],MRSA Combination,MRSA [3],0.074
same,MRSA Drug only,MRSA [3],0.1545
same,MRSA Inhibition ratio (%),MRSA [3],77.78%
same,MRSE Combination,MRSE [4],0.0967
same,MRSE Drug only,MRSE [4],0.5935
same,MRSE Inhibition ratio (%),MRSE [4],91.58%
